Data reported in patent EP4763838A1, “COMPOUND AND USE THEREOF” (Ocean University of China, priority 2023, dated 2025).
Where “and” joins values, the source holds several entries; their conditions need not be identical. Equal values may be shown once. Where a name gives a salt, the structure may show the parent alone.

These compounds were tested against T1, E3 ubiquitin ligase CRBN (Homo sapiens, UniProt Q96SW2) (assay: Binding activity to E3 ubiquitin ligase CRBN (HTRF competitive binding with XL665-labeled thalidomide, Cereblon binding kit)). Settings: competition with XL665-labeled thalidomide for GST-labelled CRBN protein, 3 h at room temperature.
T1 construct: purchased PE (PerkinElmer) 64BDCRBNPEG
Method: The binding activity of the compound disclosed in the present patent to the E3 ubiquitin ligase CRBN was determined by competitive binding of the disclosed compound with XL665-labeled thalidomide to the CRBN protein, thereby preventing the occurrence of fluorescence resonance energy transfer (FRET). Accordingly, the binding affinity of the compound to the CRBN protein was determined.
CRBN binding activity test kit (CEREBLON BINDING KITS (PE, 64BDCRBNPEG)).
The assay was based on a homogeneous time-resolved fluorescence (HTRF) technology. When a donor and an acceptor were in close proximity, the donor transferred energy to the acceptor so that the acceptor was excited to emit an emission light 665 nm.
The donor used in the kit of the present disclosure was a europium-labeled GST antibody (GST Eu Cryptate Antibody), and the acceptor was thalidomide labeled with XL665 (Thalidomide-Red reagent). The donor bound to the CRBN protein comprising a GST label. The compound disclosed in the present patent competitively bound to the CRBN protein with thalidomide. The binding activity of the compound was determined according to the fluorescence value emitted by the acceptor at 665 nm. The stronger binding force of the compound indicated the weaker signal.
The donor and the acceptor were diluted 50-fold respectively by using a kit buffer (PROTAC binding buffer 1). The CRBN protein was diluted 45-fold. The 8 mM solution of the compound disclosed in the present patent was diluted 10-fold with 1X diluent from the kit, followed by 5-fold serial dilutions for a total of 7 consecutive dilutions.
5 µl of compound, 5 µl of diluted CRBN protein and 10 µl of donor-acceptor isovolumetric mixture were sequentially added to each well of a white 384-well plate (PE, Part number:6008280). The above system was incubated for 3 h at room temperature.
A ratio of acceptor to donor emission signals for each individual well was calculated. Ratio = signal value at 665 nm/signal value at 620 nm * 10^4 Coefficient of variation (CV) = standard deviation (SD)/average Ratio × 100 [formula]
The IC50 value was calculated based on the compound concentration, Ratio and the coefficient of variation by using GraphPad Prism. Table 10 Binding activity of compounds 1-18 to E3 ubiquitin ligase CRBN
`CCc1cc(C2CCC(=O)NC2=O)nnc1N1CCNCC1` (stereo not shown) [Compound 22, 3-(5-ethyl-6-(piperazin-1-yl)pyridazin-3-yl)piperidine-2,6-dione hydrochloride salt] showed an IC50 greater than 50 µM.
`CC(C)c1cc(C2CCC(=O)NC2=O)nnc1N1CCNCC1` (stereo not shown) [Compound 23, 3-(5-isopropyl-6-(piperazin-1-yl)pyridazin-3-yl)piper idine-2,6-dione hydrochloride salt] showed an IC50 of 100 µM.
In the case of `O=C1CCC(c2cc(C3CC3)c(N3CCNCC3)nn2)C(=O)N1` (stereo not shown) [Compound 24, 3-(5-cyclopropyl-6-(piperazin-1-yl)pyridazin-3-yl)pip eridine-2,6-dione hydrochloride salt], the IC50 is reported as greater than 50 µM.
`O=C1CCC(c2cc(F)c(N3CCNCC3)nn2)C(=O)N1` (stereo not shown) [Compound 25, 3-(5-fluoro-6-(piperazin-1-yl)pyridazin-3-yl)piperidine-2,6-dione hydrochloride salt] was tested, and the IC50 was 50 µM.
For `N#Cc1cc(C2CCC(=O)NC2=O)nnc1N1CCNCC1` (stereo not shown) [Compound 26, 6-(2,6-dioxopiperidin-3-yl) -3-(piperazin-1-yl)pyridazine-4-carbonitrile hydrochloride salt], the IC50 was 50 µM.
Compound `O=C1CCC(c2cc(C(F)(F)F)c(N3CCNCC3)nn2)C(=O)N1` (stereo not shown) [Compound 27, 3-(6-(piperazin-1-yl)-5-(trifluoromethyl)pyridazin-3-yl)piperidine-2,6-dione hydrochloride salt] has an IC50 of 50 µM.
`COc1cc(C2CCC(=O)NC2=O)nnc1N1CCNCC1` (stereo not shown) [Compound 28, 3-(5-methoxy-6-(piperazin-1-yl)pyridazin-3-yl)piper idine-2,6-dione hydrochloride salt] showed an IC50 of 50 µM.
For `Nc1cc(C2CCC(=O)NC2=O)nnc1N1CCNCC1` (stereo not shown) [Compound 29, 3-(5-amino-6-(piperazin-1-yl)pyridazin-3-yl)piperidine-2,6-dione hydrochloride salt], the IC50 was 50 µM.
For `Cc1c(C2CCC(=O)NC2=O)nnc(N2CCNCC2)c1C` (stereo not shown) [Compound 33, 3-(4,5-dimethyl-6-(piperazin-1-yl)pyridazin-3-yl)pip eridine-2,6-dione hydrochloride salt], the IC50 was 50 µM.
`O=C1CCC(F)(c2ccc(N3CCNCC3)nn2)C(=O)N1` (stereo not shown) [Compound 38, 3-fluoro-3-(6-(piperazin-1-yl)pyridazin-3-yl)piperidine-2,6-dione hydrochloride salt] was tested, and the IC50 was 50 µM.
Work on `[2H]C1(c2ccc(N3CCNCC3)nn2)CCC(=O)NC1=O` (stereo not shown) [Compound 39, 3-(6-(piperazin-1-yl)pyridazin-3-yl)piperidine-2,6-dione-3-dhydrochloride salt] yielded an IC50 of 50 µM.
In the case of `O=C1CCN(c2ccc(N3CCNCC3)nn2)C(=O)N1` [Compound 40, 1-(6-(piperazin-1-yl)pyridazin-3-yl)dihydropyrimidine-2,4(1H,3H)-dione hydrochloride salt], the IC50 is reported as 50 µM.
`COc1nnc(C2CCC(=O)NC2=O)cc1N1CCNCC1` (stereo not shown) [Compound 41, 3-(6-methoxy-5-(piperazin-1-yl)pyridazin-3-yl)piper idine-2,6-dione hydrochloride salt] was tested, and the IC50 was 50 µM.
`CN(C)c1nnc(C2CCC(=O)NC2=O)cc1N1CCNCC1` (stereo not shown) [Compound 42, 3-(6-(dimethylamino)-5-(piperazin-1-yl)pyridazin-3-yl)piperidine-2,6-dione hydrochloride salt] was tested, and the IC50 was 50 µM.
For `CN1C(=O)CCC(c2ccc(N3CCNCC3)nn2)C1=O` (stereo not shown) [Compound 43, 1-methyl-3-(6-(piperazin-1-yl)pyridazin-3-yl)piperidine-2,6-dione hydrochloride salt], the IC50 was greater than 100 µM.

Same assay, conditions: competition with XL665-labeled thalidomide for GST-labelled CRBN protein, 3 h at room temperature, read-out: IC50
In the case of `CN(C)Cc1cc(C2CCC(=O)NC2=O)nnc1N1CCNCC1` (stereo not shown) [Compound 30, 3-(5-((dimethylamino)methyl)-6-(piperazin-1-yl)pyridazin-3-yl)piperidine-2,6-dione bis-hydrochloride salt], the IC50 is reported as > 50 µM and 100 µM.
